# Source: patent publication US8501806B2, “Methods for preventing or reducing colon carcinogenesis” (Nogra Pharma Limited, priority 2008, dated 2013)
# How the values were obtained:
# [1] = system: HCT-116 cells; experiment: CFSE cell proliferation assay, HCT-116 cells; assay type: cell-based, human
# Description: (§1) All reagents used in Examples 1-3 were from Sigma-Aldrich (Milan, Italy) unless specified. Compounds were dissolved as a 25 mM stock solution in culture medium, and the pH of the solution was adjusted to 7.4, if necessary, with NaOH. The human CRC cell lines, HCT-116 and HT-29 (expressing either wild-type or mutated p53 respectively), were maintained in McCoy's 5A supplemented with 10% fetal bovine serum (FBS), 1% penicillin/streptomycin, and 50 μg/ml gentamycin. The murine CRC cell line, CT26, was maintained in RPMI 1640 medium supplemented with 10% FBS and 1% penicillin/streptomycin.
# For cell growth assays, serum-starved HCT-116, HT-29, and CT26 cells were plated in appropriate complete medium at 2×10^5 cells/ml/well in 6-well culture dishes and allowed to adhere overnight. Cells were then labeled with carboxyfluorescein diacetate succinimidyl ester (CFSE) (Invitrogen, Milan Italy) at 37° C. according to the manufacturer's instruction. After 30 minutes, the medium was removed and fresh media containing 0.05% bovine serum albumin (BSA), and increasing doses of 5-ASA or disclosed compounds were added. After 24 hours, cells were collected, washed twice with PBS 1×, and then incubated with 5 μg/ml of PI for 15 minutes, at 4° C. in the dark. CFSE and/or PI-positive cells were determined by flow cytometry (Becton Dickinson, FACSCalibur, Milan, Italy). To determine whether the negative effect of compound 14 (2-methoxy-5-amino-N-hydroxybenzamide) on proliferation was reversible, cells were cultured in the presence or absence of compound 14 (1.5 and 3 mM) for 24 hours (1st culture). Afterwards, cells were either left untreated or extensively washed and cultured with medium in the absence of compound 14 for additional 24 hours (2nd culture). The percentage of proliferating cells was then evaluated by flow cytometry.
# [2] = system: HT-29 cells; experiment: CFSE cell proliferation assay, HT-29 cells; assay type: cell-based, human; conditions: FIG. 2; graded doses
# Description: as §1
# For cell growth assays, serum-starved HCT-116, HT-29, and CT26 cells were plated in appropriate complete medium at 2×10^5 cells/ml/well in 6-well culture dishes and allowed to adhere overnight. Cells were then labeled with carboxyfluorescein diacetate succinimidyl ester (CFSE) (Invitrogen, Milan Italy) at 37° C. according to the manufacturer's instruction. After 30 minutes, the medium was removed and fresh media containing 0.05% bovine serum albumin (BSA), and increasing doses of 5-ASA or disclosed compounds were added. […] CFSE and/or PI-positive cells were determined by flow cytometry (Becton Dickinson, FACSCalibur, Milan, Italy). […] The percentage of proliferating cells was then evaluated by flow cytometry.
# [3] = system: HCT-116 cells; experiment: Cell cycle distribution (BrdU/PI flow cytometry); assay type: cell-based, human; conditions: FIG. 5; increasing concentrations, 24 hours
# Description: For analysis of cell cycle distribution, serum-starved cells were cultured in medium containing 0.05% BSA and the desiderated concentrations of compound 14 for 24 hours. Cells were pulsed with 10 μM BrdU for 60 minutes, then collected, washed twice with PBS 1×, fixed in 70% cold ethanol, and stored at −20° C. for at least 3 hours. Afterwards, cells were washed twice with PBS 1×, denatured in 2M HCl and stained with anti-BrdU monoclonal antibody (Immunotech, Marseille, France) followed by FITC-conjugated secondary anti-mouse IgG (Molecular Probes/Invitrogen, Milan, Italy). After staining with 100 μg/ml PI, cells were analyzed by flow cytometry. […] HCT-116 cells were treated with or without compound 14 for 24 hours. Values in FIG. 5 are the percentages of cells in the different phases of cell cycle and indicate mean±SD of 4 experiments (untreated vs compound 14-treated cells * P<0.04, ** P<0.001). Right insets show representative dot-plots of the cell cycle distribution.
# [4] = system: colitis-associated colon cancer; experiment: AOM/DSS colitis-associated colon cancer; assay type: in vivo, Balb/c mice; conditions: i.p. 16 mg/kg/mouse every second day for 49 days
# Description: Balb/c mice were given a first i.p. injection of AOM (10 mg/kg) on day O, Seven days after the AOM injection, the mice were given 2% DSS in the drinking water for 7 days. One week after the discontinuation of DSS administration, the mice were given a second i.p. injection of AOM (5 mg/kg). Then, 7 days after the second AOM injection, the mice were again given 2% DSS in the drinking water for 7 days. Two weeks later, the mice were randomly divided into two groups receiving i.p. injection of PBS or 16 mg/kg/mouse compound 14 every second day, for 49 days until sacrifice. (To rule out the possibility that compound 14 could interfere with the ongoing mucosal inflammation, treatment was started 2 weeks after the last DSS administration.) Mice were endoscopically screened, and neoplastic lesions were scored as previously described All mice were sacrificed at the end of the study, and colonic samples were used for histological analysis and isolating lamina propria mononuclear cells (LPMC). An aliquot of LPMC was assessed for the expression of CD4, CD8, and CD25 by flow-cytometry using the following antibodies (CD4: cat. 552051, BD Pharmigen, Milan, Italy; CD8: cat. 22150084S and CD25: cat. 22150253, Immunotools, Friesoythe, Germany), while the remaining LPMC were used for extracting RNA and assessing the expression of COX-2, TNFα, and IL-1β by real-time PCR. To this end, the following primers were used: COX-2: FWD: 5′-[…]-3′; REV: 5′-[…]-3′, TNFα: FWD: 5′-[…]-3′; REV: 5′-[…]-3, IL-1β: FWD: 5′-[…]-3′; REV: 5′-[…]-3.
# Colonic sections were stained with hematoxylin and eosin (H&E). The degree of inflammation and the presence of neoplastic lesions were evaluated and graded by the same pathologist in a blinded fashion. Immunohistochemistry for PCNA was performed using a PCNA staining kit (ZYMED Laboratories, Carlsbad, Calif., U.S.A.) according to the manufacturer's instructions. […] A polypoidor flat lesion is seen in control and compound 14-treated mice respectively.
compound,measurement,setting,value
"COc1ccc(N)cc1C(=O)NO [compound 14, 2-methoxy-5-amino-N-hydroxybenzamide]",anti-proliferative effect (percentage of growth inhibition),"[1]; FIG. 1, CFSE-labeled HCT 116 cells, increasing doses",pronounced anti-proliferative effect
same,potency relative to 5-ASA in inhibiting CRC cell proliferation,"[1]; FIG. 1, CFSE-labeled HCT 116 cells, increasing doses, 24 hours",about ten times more potent than 5-ASA
same,proliferation of HCT-116 cells,"[1]; FIG. 2, graded doses",dose-dependently inhibited
same,time dependence of anti-proliferative effect,"[1]; FIG. 3A, increasing doses for 24, 48, and 72 hours",time-dependent
same,reversibility of anti-proliferative effect,"[1]; FIG. 3B, 1.5-3 mM for 24 hours, then washed and cultured 24 hours without compound",fully reversible
same,proliferation of HT-29 cells,[2],dose-dependently inhibited
same,cells in G0/G1 phase,[3],progressive accumulation
same,cells with S and G2/M phase DNA content,[3],decrease
same,multiplicity of neoplastic lesions (polypoid and flat),[4]; FIG. 8C,significantly reduced both types of lesions
same,PCNA staining in normal colonic mucosa,[4],no significant change
same,PCNA staining of neoplastic lesions,[4],confirmed the anti-proliferative effect
